# Measured values reported in patent US9273058B2 (BRISTOL-MYERS SQUIBB COMPANY, priority 2013, dated 2016).
# What was measured:
# CK1ε = CK1ε (Homo sapiens, UniProt P49674); experiment: CK1ε kinase assay (Caliper LabChip electrophoretic separation of fluoresceinated peptide substrate and product); type: biochemical; conditions: 200 pM CK1ε, 50 μM ATP, 1.5 μM peptide, 22 hours at room temperature; read-out: CK1ε IC50 range
# How it was run: (§1)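 Compounds, taken from 10 mM DMSO stocks, are titrated at eleven concentrations. Kinase reactions proceed for 22 hours at room temperature and are quenched with EDTA. Substrate and product are resolved electrophoretically, and IC50 values are fitted by non-linear regression.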
# CK1δ = CK1δ (Homo sapiens, UniProt P48730); experiment: CK1δ kinase assay (Caliper LabChip electrophoretic separation of fluoresceinated peptide substrate and product); type: biochemical; conditions: 200 pM CK1δ, 50 μM ATP, 1.5 μM peptide, 22 hours at room temperature; read-out: CK1δ IC50 range
# Chain of CK1δ (P48730 whole entry): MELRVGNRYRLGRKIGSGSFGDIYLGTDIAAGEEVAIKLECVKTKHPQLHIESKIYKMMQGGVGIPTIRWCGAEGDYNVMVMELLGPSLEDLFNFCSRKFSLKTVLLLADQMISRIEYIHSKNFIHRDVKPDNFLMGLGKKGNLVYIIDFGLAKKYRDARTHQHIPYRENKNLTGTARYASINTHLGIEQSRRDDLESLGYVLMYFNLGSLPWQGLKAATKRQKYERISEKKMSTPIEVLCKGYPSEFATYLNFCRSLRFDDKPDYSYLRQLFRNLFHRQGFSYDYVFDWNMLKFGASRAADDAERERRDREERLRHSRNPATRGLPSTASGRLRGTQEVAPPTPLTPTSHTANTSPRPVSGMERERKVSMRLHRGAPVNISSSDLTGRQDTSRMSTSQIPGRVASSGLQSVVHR
# How it was run: as §1
# Chain of CK1ε (P49674 whole entry): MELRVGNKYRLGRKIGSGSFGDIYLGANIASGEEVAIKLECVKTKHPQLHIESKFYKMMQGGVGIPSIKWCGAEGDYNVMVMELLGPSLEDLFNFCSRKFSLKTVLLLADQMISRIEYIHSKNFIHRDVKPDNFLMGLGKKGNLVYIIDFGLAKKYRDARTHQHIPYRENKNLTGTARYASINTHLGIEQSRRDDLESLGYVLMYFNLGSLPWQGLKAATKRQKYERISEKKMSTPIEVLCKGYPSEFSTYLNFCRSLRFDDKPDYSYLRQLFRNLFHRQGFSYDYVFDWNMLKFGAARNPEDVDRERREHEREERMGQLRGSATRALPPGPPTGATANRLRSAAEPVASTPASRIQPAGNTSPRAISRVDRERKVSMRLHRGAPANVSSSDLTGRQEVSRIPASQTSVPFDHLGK
IC50 (CK1ε),IC50 (CK1δ),SMILES
0.01 to 10 nM,0.01 to 10 nM,"NC(=O)c1c(-c2cccc(Cl)c2)nn2c1CN(C(=O)NC13CCC(C(F)F)(CC1)CC3)CC2 [Compound A77, 2-(3-Chlorophenyl)-N^5-(4-(difluoromethyl)bicyclo[2.2.2]octan-1-yl)-6,7-dihydropyrazolo[1,5-a]pyrazine-3,5(4H)-dicarboxamide]"
0.01 to 10 nM,0.01 to 10 nM,"NC(=O)c1c(-c2cccc(Cl)c2)nn2c1CN(C(=O)NC13CCC(CF)(CC1)CC3)CC2 [Compound A78, 2-(3-Chlorophenyl)-N^5-(4-(fluoromethyl)bicyclo[2.2.2]octan-1-yl)-6,7-dihydropyrazolo[1,5-a]pyrazine-3,5(4H)-dicarboxamide]"
0.01 to 10 nM,0.01 to 10 nM,"NC(=O)c1c(-c2cccc(Cl)c2)nn2c1CN(C(=O)NC13CCC(CC1)CC3)CC2 [Compound A79, N^5-(Bicyclo[2.2.2]octan-1-yl)-2-(3-chlorophenyl)-6,7-dihydropyrazolo[1,5-a]pyrazine-3,5(4H)-dicarboxamide]"
0.01 to 10 nM,0.01 to 10 nM,"COC12CCC(NC(=O)N3CCn4nc(-c5cccc(Cl)c5)c(C(N)=O)c4C3)(CC1)CC2 [Compound A80, 2-(3-Chlorophenyl)-N^5-(4-methoxybicyclo[2.2.2]octan-1-yl)-6,7-dihydropyrazolo[1,5-a]pyrazine-3,5(4H)-dicarboxamide]"
0.01 to 10 nM,0.01 to 10 nM,"COC12CCC(NC(=O)N3CCn4nc(-c5cccc(Cl)c5)c(C(N)=O)c4C3)(CC1)C(F)(F)C2 [Compound A81, 2-(3-Chlorophenyl)-N^5-(2,2-difluoro-4-methoxybicyclo[2.2.2]octan-1-yl)-6,7-dihydropyrazolo[1,5-a]pyrazine-3,5(4H)-dicarboxamide]"
0.01 to 10 nM,0.01 to 10 nM,"COC12CCC(NC(=O)N3CCn4nc(-c5cccc(Cl)c5)c(C(N)=O)c4C3)(CC1)C2 [Compound A82, 2-(3-Chlorophenyl)-N^5-(4-methoxybicyclo[2.2.1]heptan-1-yl)-6,7-dihydropyrazolo[1,5-a]pyrazine-3,5(4H)-dicarboxamide]"
0.01 to 10 nM,0.01 to 10 nM,"NC(=O)c1c(-c2cccc(Cl)c2)nn2c1CN(C(=O)NC13CCC(c4ccccc4)(CC1)CC3)CC2 [Compound A83, 2-(3-Chlorophenyl)-N^5-(4-phenylbicyclo[2.2.2]octan-1-yl)-6,7-dihydropyrazolo[1,5-a]pyrazine-3,5(4H)-dicarboxamide]"
0.01 to 10 nM,0.01 to 10 nM,"NC(=O)c1c(-c2cccc(Cl)c2)nn2c1CN(C(=O)NC13CCCC(CCC1)C3)CC2 [Compound A84, N^5-((1r,5r)-Bicyclo[3.3.1]nonan-1-yl)-2-(3-chlorophenyl)-6,7-dihydropyrazolo[1,5-a]pyrazine-3,5(4H)-dicarboxamide]"
0.01 to 10 nM,0.01 to 10 nM,"CC12CC3(C)CC(C)(C1)CC(NC(=O)N1CCn4nc(-c5cccc(Cl)c5)c(C(N)=O)c4C1)(C2)C3 [Compound A85, 2-(3-Chlorophenyl)-N^5-((3s,5s,7s)-3,5,7-trimethyladamantan-1-yl)-6,7-dihydropyrazolo[1,5-a]pyrazine-3,5(4H)-dicarboxamide]"
0.01 to 10 nM,0.01 to 10 nM,"NC(=O)c1c(-c2cccc(Cl)c2)nn2c1CN(C(=O)NC13C4C5C6C4C1C6C53)CC2 (centres unmarked) [Compound A86, N^5-(Cuban-1-yl)-2-(3-chlorophenyl)-6,7-dihydropyrazolo[1,5-a]pyrazine-3,5(4H)-dicarboxamide]"
0.01 to 10 nM,0.01 to 10 nM,"N#CC12C3C4C1C1C2C3C41NC(=O)N1CCn2nc(-c3cccc(Cl)c3)c(C(N)=O)c2C1 (centres unmarked) [Compound A87, N^5-(4-Cyanocuban-1-yl)-2-(3-chlorophenyl)-6,7-dihydropyrazolo[1,5-a]pyrazine-3,5(4H)-dicarboxamide]"
0.01 to 10 nM,0.01 to 10 nM,"NC(=O)c1c(-c2cccc(Cl)c2)nn2c1CN(C(=O)NC13C4C5C1C1C3C4C51F)CC2 (centres unmarked) [Compound A88, N^5-(4-Fluorocuban-1-yl)-2-(3-chlorophenyl)-6,7-dihydropyrazolo[1,5-a]pyrazine-3,5(4H)-dicarboxamide]"
0.01 to 10 nM,0.01 to 10 nM,"NC(=O)c1c(-c2ccc(Cl)c(Cl)c2)nn2c1CN(C(=O)NC13CCC(c4ccc(F)cc4)(CC1)CC3)CC2 [Compound A89, 2-(3,4-Dichlorophenyl)-N^5-(4-(4-fluorophenyl)bicyclo[2.2.2]octan-1-yl)-6,7-dihydropyrazolo[1,5-a]pyrazine-3,5(4H)-dicarboxamide]"
0.01 to 10 nM,0.01 to 10 nM,"N#Cc1ccc(C23CCC(NC(=O)N4CCn5nc(-c6ccc(Cl)c(Cl)c6)c(C(N)=O)c5C4)(CC2)CC3)cc1 [Compound A90, N^5-(4-(4-Cyanophenyl)bicyclo[2.2.2]octan-1-yl)-2-(3,4-dichlorophenyl)-6,7-dihydropyrazolo[1,5-a]pyrazine-3,5(4H)-dicarboxamide]"
0.01 to 10 nM,0.01 to 10 nM,"CC12CC3(C)CC(C)(C1)CC(NC(=O)N1CCn4nc(-c5ccc(Cl)c(Cl)c5)c(C(N)=O)c4C1)(C2)C3 [Compound A91, 2-(3,4-Dichlorophenyl)-N^5-((3s,5s,7s)-3,5,7-trimethyladamantan-1-yl)-6,7-dihydropyrazolo[1,5-a]pyrazine-3,5(4H)-dicarboxamide]"
0.01 to 10 nM,0.01 to 10 nM,"CC12CC3CC(C)(C1)CC(NC(=O)N1CCn4nc(-c5ccc(Cl)c(Cl)c5)c(C(N)=O)c4C1)(C3)C2 [Compound A92, 2-(3,4-Dichlorophenyl)-N^5-((1r,3R,5S,7r)-3,5-dimethyladamantan-1-yl)-6,7-dihydropyrazolo[1,5-a]pyrazine-3,5(4H)-dicarboxamide]"
0.01 to 10 nM,0.01 to 10 nM,"C[C@@]12C[C@H]3C[C@@](Cl)(C1)C[C@](NC(=O)N1CCn4nc(-c5ccc(Cl)c(Cl)c5)c(C(N)=O)c4C1)(C3)C2 [Compound A93, N^5-((1S,3R,5S,7R)-3-Chloro-5-methyladamantan-1-yl)-2-(3,4-dichlorophenyl)-6,7-dihydropyrazolo[1,5-a]pyrazine-3,5(4H)-dicarboxamide]"
0.01 to 10 nM,0.01 to 10 nM,"NC(=O)c1c(-c2cccc(F)c2)nn2c1CN(C(=O)NC13CCC(C(F)F)(CC1)CC3)CC2 [Compound A94, N^5-(4-(Difluoromethyl)bicyclo[2.2.2]octan-1-yl)-2-(3-fluorophenyl)-6,7-dihydropyrazolo[1,5-a]pyrazine-3,5(4H)-dicarboxamide]"
10 to 100 nM,0.01 to 10 nM,"NC(=O)c1c(-c2cccc(F)c2)nn2c1CN(C(=O)NC(CF)(CF)CF)CC2 [Compound A95, N^5-(1,3-Difluoro-2-(fluoromethyl)propan-2-yl)-2-(3-fluorophenyl)-6,7-dihydropyrazolo[1,5-a]pyrazine-3,5(4H)-dicarboxamide]"
0.01 to 10 nM,0.01 to 10 nM,"NC(=O)c1c(-c2ccc(F)c(Cl)c2)nn2c1CN(C(=O)NC1CC(F)(F)C1)C[C@@H]2CF [Compound A114, (R)-2-(3-Chloro-4-fluorophenyl)-N^5-(3,3-difluorocyclobutyl)-7-(fluoromethyl)-6,7-dihydropyrazolo[1,5-a]pyrazine-3,5(4H)-dicarboxamide]"
0.01 to 10 nM,0.01 to 10 nM,"C[C@H]1CN(C(=O)NC2CC(F)(F)C2)Cc2c(C(N)=O)c(-c3ccc(F)c(Cl)c3)nn21 [Compound A115, (S)-2-(3-Chloro-4-fluorophenyl)-N^5-(3,3-difluorocyclobutyl)-7-methyl-6,7-dihydropyrazolo[1,5-a]pyrazine-3,5(4H)-dicarboxamide]"
0.01 to 10 nM,0.01 to 10 nM,"NC(=O)c1c(-c2ccc(F)c(Cl)c2)nn2c1CN(C(=O)NC1CC(F)(F)C1)C[C@@H]2CO [Compound A116, (R)-2-(3-Chloro-4-fluorophenyl)-N^5-(3,3-difluorocyclobutyl)-7-(hydroxymethyl)-6,7-dihydropyrazolo[1,5-a]pyrazine-3,5(4H)-dicarboxamide]"
0.01 to 10 nM,0.01 to 10 nM,"CC(C)(C)NC(=O)N1Cc2c(C(N)=O)c(-c3ccc(F)c(Cl)c3)nn2C(C(C)(C)C)C1 (centres unmarked) [Compound A118, N^5-7-Di-tert-butyl-2-(3-chloro-4-fluorophenyl)-6,7-dihydropyrazolo[1,5-a]pyrazine-3,5(4H)-dicarboxamide]"
0.01 to 10 nM,0.01 to 10 nM,"CC(C)(C)NC(=O)N1Cc2c(C(N)=O)c(-c3cccc(Cl)c3)nn2C2(CC2)C1 [Compound A129, N^5-(tert-Butyl)-2′-(3-chlorophenyl)-4′H-spiro[cyclopropane-1,7′-pyrazolo[1,5-a]pyrazine]-3′,5′(6′H)-dicarboxamide]"
10 to 100 nM,10 to 100 nM,"CC(C)(C)NC(=O)N1Cc2c(C(N)=O)c(-c3cccc(F)c3)nn2C2(CC2)C1 [Compound A131, N^5′-(tert-Butyl)-2′-(3-fluorophenyl)-4′H-spiro[cyclopropane-1,7′-pyrazolo[1,5-a]pyrazine]-3′,5′(6′H)-dicarboxamide]"
0.01 to 10 nM,0.01 to 10 nM,"CC(C)(C)NC(=O)N1Cc2c(C(N)=O)c(-c3ccc(F)c(Cl)c3)nn2C2(CC2)C1 [Compound A132, N^5-(tert-Butyl)-2′-(3-chloro-4-fluorophenyl)-4′H-spiro[cyclopropane-1,7′-pyrazolo[1,5-a]pyrazine]-3′,5′(6′H)-dicarboxamide]"
0.01 to 10 nM,0.01 to 10 nM,"NC(=O)c1c(-c2ccc(F)c(Cl)c2)nn2c1CN(C(=O)NC1CC(F)(F)C1)CC21CC1 [Compound A133, 2′-(3-Chloro-4-fluorophenyl)-N^5′-(3,3-difluorocyclobutyl)-4′H-spiro[cyclopropane-1,7′-pyrazolo[1,5-a]pyrazine]-3′,5′(6′H)-dicarboxamide]"
0.01 to 10 nM,0.01 to 10 nM,"CC(C)(C)NC(=O)N1Cc2c(C(N)=O)c(-c3ccc(F)c(Cl)c3)nn2C2(COC2)C1 [Compound A134, N^5′-(tert-Butyl)-2′-(3-chloro-4-fluorophenyl)-4′H-spiro[oxetane-3,7′-pyrazolo[1,5-a]pyrazine]-3′,5′(6′H)-dicarboxamide]"
